Data as given in patent US20260327216A1, “SUBSTITUTED OXAZOLONE COMPOUND FOR DECREASING LEVELS OF IKZF I-4 PROTEINS” (BRISTOL-MYERS SQUIBB COMPANY, priority 2023, published 2026).

How the values were obtained:
IKZF1 Ikaros = IKZF1 Ikaros (Homo sapiens, UniProt Q13422+Q96SW2); assay: Jurkat Cellular Degradation Assay, IKZF1; format: cell-based; set-up: endogenous in cells; details: Jurkat cells, 72 h; for Dmax: human, 100% = complete degradation, 0% = no detectable degradation, read-out: IKZF1 Ikaros max % deg. observed
IKZF1 Ikaros, sequence (Q13422 whole entry): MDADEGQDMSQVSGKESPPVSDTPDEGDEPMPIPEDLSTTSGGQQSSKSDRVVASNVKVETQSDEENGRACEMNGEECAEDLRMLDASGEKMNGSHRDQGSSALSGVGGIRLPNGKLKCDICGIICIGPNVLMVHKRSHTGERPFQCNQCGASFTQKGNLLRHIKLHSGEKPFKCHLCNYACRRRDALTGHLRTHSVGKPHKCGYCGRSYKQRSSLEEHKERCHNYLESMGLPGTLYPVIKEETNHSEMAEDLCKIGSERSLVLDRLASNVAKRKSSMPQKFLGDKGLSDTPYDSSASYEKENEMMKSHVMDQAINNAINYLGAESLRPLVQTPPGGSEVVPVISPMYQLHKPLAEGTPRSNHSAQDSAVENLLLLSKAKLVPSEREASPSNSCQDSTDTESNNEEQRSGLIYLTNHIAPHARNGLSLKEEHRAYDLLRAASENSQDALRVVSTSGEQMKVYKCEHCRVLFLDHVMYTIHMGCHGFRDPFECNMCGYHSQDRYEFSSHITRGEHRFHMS
IKZF1 Ikaros, sequence (Q96SW2 whole entry): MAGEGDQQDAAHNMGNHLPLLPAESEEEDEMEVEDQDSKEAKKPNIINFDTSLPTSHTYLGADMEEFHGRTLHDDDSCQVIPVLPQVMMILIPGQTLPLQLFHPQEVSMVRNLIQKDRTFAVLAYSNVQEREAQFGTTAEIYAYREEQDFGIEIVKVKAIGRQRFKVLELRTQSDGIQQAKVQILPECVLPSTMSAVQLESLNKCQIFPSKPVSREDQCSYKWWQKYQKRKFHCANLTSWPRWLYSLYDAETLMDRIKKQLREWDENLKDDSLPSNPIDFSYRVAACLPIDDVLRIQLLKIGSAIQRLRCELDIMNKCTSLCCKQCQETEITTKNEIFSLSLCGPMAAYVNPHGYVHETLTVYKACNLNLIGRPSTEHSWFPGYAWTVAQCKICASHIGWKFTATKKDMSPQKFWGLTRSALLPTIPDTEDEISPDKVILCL
IKZF1 Ikaros, sequence (Q16531 whole entry partner): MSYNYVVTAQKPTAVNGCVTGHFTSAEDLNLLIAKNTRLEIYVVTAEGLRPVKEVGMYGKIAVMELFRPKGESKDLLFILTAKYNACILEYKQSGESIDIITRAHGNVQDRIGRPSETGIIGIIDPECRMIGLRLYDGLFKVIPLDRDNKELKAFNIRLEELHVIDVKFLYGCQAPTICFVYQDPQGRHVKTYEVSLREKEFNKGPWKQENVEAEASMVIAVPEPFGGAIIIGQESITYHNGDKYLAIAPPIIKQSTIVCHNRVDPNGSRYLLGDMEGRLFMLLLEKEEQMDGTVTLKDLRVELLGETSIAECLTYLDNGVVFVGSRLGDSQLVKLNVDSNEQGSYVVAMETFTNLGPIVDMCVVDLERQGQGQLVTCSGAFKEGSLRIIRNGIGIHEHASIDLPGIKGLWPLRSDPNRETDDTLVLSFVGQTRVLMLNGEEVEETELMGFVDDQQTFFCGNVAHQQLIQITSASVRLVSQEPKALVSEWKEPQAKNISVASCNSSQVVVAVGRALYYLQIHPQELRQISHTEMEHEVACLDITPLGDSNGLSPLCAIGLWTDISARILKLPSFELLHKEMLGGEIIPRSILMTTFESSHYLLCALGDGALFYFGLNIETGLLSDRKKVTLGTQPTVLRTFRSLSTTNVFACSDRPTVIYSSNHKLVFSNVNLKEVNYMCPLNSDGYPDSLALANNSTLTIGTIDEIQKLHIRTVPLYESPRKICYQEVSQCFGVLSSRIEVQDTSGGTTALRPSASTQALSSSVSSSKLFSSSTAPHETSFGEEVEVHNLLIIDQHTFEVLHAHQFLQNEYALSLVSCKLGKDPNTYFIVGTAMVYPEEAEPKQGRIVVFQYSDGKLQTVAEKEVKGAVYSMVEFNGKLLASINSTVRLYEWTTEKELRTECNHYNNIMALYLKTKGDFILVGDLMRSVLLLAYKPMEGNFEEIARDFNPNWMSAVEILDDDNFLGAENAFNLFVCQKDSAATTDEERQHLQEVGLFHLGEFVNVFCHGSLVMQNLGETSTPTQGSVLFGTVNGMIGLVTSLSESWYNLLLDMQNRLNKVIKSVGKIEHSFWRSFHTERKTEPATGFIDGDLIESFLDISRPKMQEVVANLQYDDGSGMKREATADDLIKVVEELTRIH
Procedure: Jurkat cells were plated at 80,000 cells/well in 40 μL RPMI+10% FBS in a 384-well cell culture plate prior to using acoustic dispensing technology for adding a compound of interest. Cell cultures were incubated for 72 h at 37° C. and 5% CO2. In order to facilitate analysis, cell cultures were spun down at 200 rpm for 5 min and the supernatant was discarded. After shaking the plate to dislodge the cell pellet, cells were resuspended in 50 μL of Fixation Buffer (eBioscience FoxP3 buffer set 00-5523-00) for 60 min at room temperature. After centrifuging and discarding the supernatant, cells were permeabilized with 50 μL of Permeabilization buffer (eBioscience FoxP3 buffer set 00-5523-00) for 10 min at room temperature. Following permeabilization, cells were spun down and the supernatant was replaced with 20 μL fluorescently labelled antibodies against Helios, Ikaros and Aiolos or corresponding Isotype controls in 1× Permeabilization buffer (Ikaros-Alexa488 [Biolegend, Cat #368408, 1:50], Helios-PE [CST, Cat #29360, 1:50], Aiolos-Alexa647 [Biolegend, Cat #371106 Biolegend, 1:25]) and staining reactions were incubated for 1 h at room temperature while protected from light. Subsequently, 30 μL of 1× Permeabilization buffer was added prior to centrifuging the cells and discarding the supernatant. Stained cells were resuspended in 25 μL of flow cytometry staining buffer [PBS+0.2% bovine serum albumin (BSA)] and analyzed using an Intellicyt Ique Plus flow cytometer.
(§1) Table A-1 lists the maximum observed degradation of the IKZF1 protein, IKZF2 protein, and IKZF3 protein as measured in the Jurkat Cellular Degradation assay. The results in Table A-1 were rounded to two digits. In the Jurkat Cellular Degradation assay, a value of 100% indicated no detectable protein remaining or complete degradation of the protein; and a value of 0% indicated no detectable degradation of the protein by the test compound.

IKZF3 Aiolos = IKZF3 Aiolos (Homo sapiens, UniProt Q96SW2+Q9UKT9); assay: Human CD8^+ T Cell Reprogramming Assay, IKZF3; format: cell-based; set-up: Cryopreserved healthy donor human peripheral blood mononuclear cells (PBMC); endogenous in cells; host or cells: human PBMC from healthy donors (CD8+ T cells by flow cytometry); details: human PBMC, CD8+ T cells, 24 hours; for Dmax / IKZF3 Aiolos Maximum Observed Degradation: 100% = complete degradation; for Dmax: read-out: IKZF3 Aiolos Maximum Observed Degradation
IKZF3 Aiolos, sequence (Q9UKT9 whole entry): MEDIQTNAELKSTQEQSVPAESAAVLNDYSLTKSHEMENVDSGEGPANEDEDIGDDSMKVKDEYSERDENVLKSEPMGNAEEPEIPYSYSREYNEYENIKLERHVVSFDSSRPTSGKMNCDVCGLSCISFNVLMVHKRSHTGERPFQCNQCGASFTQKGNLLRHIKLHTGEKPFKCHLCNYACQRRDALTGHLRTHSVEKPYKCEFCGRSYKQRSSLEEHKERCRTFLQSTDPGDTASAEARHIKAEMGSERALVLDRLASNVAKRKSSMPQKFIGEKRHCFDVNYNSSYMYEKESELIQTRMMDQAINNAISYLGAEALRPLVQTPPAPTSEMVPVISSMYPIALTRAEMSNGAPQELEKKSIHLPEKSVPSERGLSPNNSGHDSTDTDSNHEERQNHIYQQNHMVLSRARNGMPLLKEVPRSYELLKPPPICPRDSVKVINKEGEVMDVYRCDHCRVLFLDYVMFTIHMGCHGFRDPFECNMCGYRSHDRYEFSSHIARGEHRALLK
IKZF3 Aiolos, sequence (Q96SW2 whole entry): as the sequence (Q96SW2 whole entry) above
IKZF3 Aiolos, sequence (Q16531 whole entry partner): as the sequence (Q16531 whole entry partner) above
Procedure: Cryopreserved healthy donor human peripheral blood mononuclear cells (PBMC) from healthy donors were thawed and seeded at 500,000 cells/well of 96-well round bottom plates in RPMI 1640 media (Gibco) supplemented with 10% FBS, Pen/Strep (Gibco), MEM-NEAA (Gibco), and sodium pyruvate (Gibco). Cells were treated with titrated doses of compound for 24 hours at 37° C., 5% CO2 before analyzing by flow cytometry.
For flow cytometry staining, cells were washed twice with flow cytometry staining buffer (Thermo Fisher) and incubated in Human Tru-stain Fc block (Biolegend) for 10 minutes before adding eFluor780 viability dye (Thermo Fisher) and surface marker antibody cocktail containing LD-eFluor780, CD3-BUV-395, CD4-BUV805, CD8-FITC, and CD25-BV605 for 30 minutes at 4° C. Cells were then fixed and permeabilized by incubation with permeabilization buffer (eBioscience FoxP3 buffer set 00-5523-00) for 30 minutes at 4° C. as per the kit manufacturer's instructions. Cells were washed twice with the Perm/Wash buffer supplied in the kit as per the manufacturer's instructions and incubated overnight at 4° C. with an intracellular antibody cocktail comprised of antibodies specific for the transcription factors (i.e., Foxp3-BV421, HELIOS-PE-Cy7, EOS-PE, IKAROS-PECF594, AIOLOS-AF647). Cells were washed twice with Perm/Wash buffer and resuspended in flow cytometry staining buffer (Thermo Fisher) prior to acquisition. Sample acquisition and analysis was performed using a BD LSRFortessa (BD Biosciences) flow cytometer. Single-stain controls for each fluorochrome were prepared using UltraComp eBead Compensation Beads (Thermo Fisher). Data were analyzed using FlowJo version 10 and GraphPad Prism Software.
as §1, with “D-1” for “A-1”, “protein” for “protein, IKZF2 protein,”, “Human CD8^+ T Cell Reprogramming” for “Jurkat Cellular Degradation”

[1] = concentration reducing protein level by 50% vs DMSO

Row | Dmax (IKZF1 Ikaros) | Dmax (IKZF3 Aiolos) | IKZF3 Aiolos Maximum Observed Degradation (IKZF3 Aiolos) | DC50 (IKZF1 Ikaros; [1]) | IKZF3 Aiolos Maximum Observed Degradation (IKZF3 Aiolos; 1440 min) | DC50 (IKZF3 Aiolos; [1]) | SMILES
1 | 17% | 0% | – | – | – | – | O=C1CCC(n2cc(-c3ccc(Br)cc3F)oc2=O)C(=O)N1 (stereo not shown) [Comparative Compound B, 3-(5-(4-bromo-2-fluorophenyl)-2-oxooxazol-3(2H)-yl)piperidine-2,6-dione]
2 | 57% | 80% | 80% | – | – | – | O=C1CCC(n2cc(-c3ccccc3)oc2=O)C(=O)N1 (stereo not shown) [Comparative Compound A, 3-(2-oxo-5-phenyloxazol-3(2H)-yl)piperidine-2,6-dione]
3 | 70% | 69 to 74% | – | 749 nM | 69-74% | 22 to 25 nM | Cc1cc(-c2ccc(-c3cn(C4CCC(=O)NC4=O)c(=O)o3)c(F)c2)nc(N)c1OC(F)F (stereo not shown) [Example 1, 3-(5-(4-(6-Amino-5-(difluoromethoxy)-4-methylpyridin-2-yl)-2-fluorophenyl)-2-oxooxazol-3(2H)-yl)piperidine-2,6-dione]
